Test results reported in ChEMBL document CHEMBL1926642, “Relevance of the C-5 position to schweinfurthin induced cytotoxicity” (2011).

Legend:
Type in all cases: functional
NCI-H460 = assay: Growth inhibition of human NCI-H460 cells after 48 hrs by sulforhodamine B assay; settings: NCI-H460, 48 h
HCT-116 = assay: Growth inhibition of human HCT116 cells after 48 hrs by sulforhodamine B assay; settings: HCT-116, 48 h
UO-31 = assay: Growth inhibition of human UO31 cells after 48 hrs by sulforhodamine B assay; settings: UO-31, 48 h
UACC-257 = assay: Growth inhibition of human UACC257 cells after 48 hrs by sulforhodamine B assay; settings: UACC-257, 48 h
A549 = assay: Growth inhibition of human A549 cells after 48 hrs by sulforhodamine B assay; settings: A549, 48 h
T47D = assay: Growth inhibition of human T47D cells after 48 hrs by sulforhodamine B assay
SF-539 = assay: Growth inhibition of human SF539 cells after 48 hrs by sulforhodamine B assay; settings: SF-539, 48 h
CCRF-CEM = assay: Growth inhibition of human CCRF-CEM cells after 48 hrs by sulforhodamine B assay
A498 = assay: Growth inhibition of human A498 cells after 48 hrs by sulforhodamine B assay; settings: A498, 48 h
OVCAR-8 = assay: Growth inhibition of human OVCAR8 cells after 48 hrs by sulforhodamine B assay; settings: OVCAR-8, 48 h
SW-620 = assay: Growth inhibition of human SW620 cells after 48 hrs by sulforhodamine B assay; settings: SW-620, 48 h
SK-OV-3 = assay: Growth inhibition of human SKOV3 cells after 48 hrs by sulforhodamine B assay; settings: SK-OV-3, 48 h
NCI-H322M = assay: Growth inhibition of human NCI-H322M cells after 48 hrs by sulforhodamine B assay
SF-295 = assay: Growth inhibition of human SF295 cells after 48 hrs by sulforhodamine B assay; settings: SF-295, 48 h
SN12C = assay: Growth inhibition of human SN12C cells after 48 hrs by sulforhodamine B assay
RPMI-8226 = assay: Growth inhibition of human RPMI8226 cells after 48 hrs by sulforhodamine B assay; settings: RPMI-8226, 48 h
UACC-62 = assay: Growth inhibition of human UACC62 cells after 48 hrs by sulforhodamine B assay; settings: UACC-62, 48 h
K562 = assay: Growth inhibition of human K562 cells after 48 hrs by sulforhodamine B assay; settings: K562, 48 h
HCT-15 = assay: Growth inhibition of human HCT15 cells after 48 hrs by sulforhodamine B assay; settings: HCT-15, 48 h
PC-3 = assay: Growth inhibition of human PC3 cells after 48 hrs by sulforhodamine B assay; settings: PC-3, 48 h
SK-MEL-2 = assay: Growth inhibition of human SK-MEL-2 cells after 48 hrs by sulforhodamine B assay; settings: SK-MEL-2, 48 h
Malme-3M = assay: Growth inhibition of human MALME-3M cells after 48 hrs by sulforhodamine B assay
ACHN = assay: Growth inhibition of human ACHN cells after 48 hrs by sulforhodamine B assay
SNB-75 = assay: Growth inhibition of human SNB75 cells after 48 hrs by sulforhodamine B assay; settings: SNB-75, 48 h
OVCAR-4 = assay: Growth inhibition of human OVCAR4 cells after 48 hrs by sulforhodamine B assay; settings: OVCAR-4, 48 h
HT-29 = assay: Growth inhibition of human HT-29 cells after 48 hrs by sulforhodamine B assay; settings: HT-29, 48 h
KM12 = assay: Growth inhibition of human KM12 cells after 48 hrs by sulforhodamine B assay; settings: KM12, 48 h
MDA-MB-435 = assay: Growth inhibition of human MDA-MB-435 cells after 48 hrs by sulforhodamine B assay; settings: MDA-MB-435, 48 h
NCI-H23 = assay: Growth inhibition of human NCI-H23 cells after 48 hrs by sulforhodamine B assay; settings: NCI-H23, 48 h

COc1cc(/C=C/c2cc3c(c(OC)c2)O[C@]2(C)CC[C@@H](O)C(C)(C)[C@H]2C3)cc(O)c1C/C=C(\C)CCC=C(C)C
GI50 (NCI-H460): 1.32 µM | LC50 (concentration killing 50% of cells) (NCI-H460): 16.2 µM | TGI (NCI-H460; read-out: pTGI (converted)): 5.25 µM | GI50 (HCT-116): 3.24 µM | LC50 (HCT-116): 21.9 µM | TGI (HCT-116; read-out: pTGI (converted)): 9.77 µM | GI50 (UO-31): 1.12 µM | LC50 (UO-31): 21.9 µM | TGI (UO-31; read-out: pTGI (converted)): 7.59 µM | GI50 (UACC-257): 6.76 µM | LC50 (UACC-257): 29.5 µM | TGI (UACC-257; read-out: pTGI (converted)): 14.1 µM | LC50 (A549): 28.2 µM | GI50 (A549; read-out: GI50): 2.45 µM | GI50 (A549; read-out: pGI50 (converted)): 2.45 µM | TGI (A549; read-out: pTGI (converted)): 10.5 µM | GI50 (T47D): 2.29 µM | LC50 (T47D): 23.4 µM | TGI (T47D; read-out: pTGI (converted)): 9.12 µM | GI50 (SF-539): 0.155 µM | LC50 (SF-539): 7.59 µM | TGI (SF-539; read-out: pTGI (converted)): 1.1 µM | GI50 (CCRF-CEM): 1.41 µM | LC50 (CCRF-CEM): > 50.1 µM | TGI (CCRF-CEM; read-out: pTGI (converted)): 13.8 µM | GI50 (A498): 1.82 µM | LC50 (A498): 21.9 µM | TGI (A498; read-out: pTGI (converted)): 8.32 µM | GI50 (OVCAR-8): 5.5 µM | LC50 (OVCAR-8): 30.9 µM | TGI (OVCAR-8; read-out: pTGI (converted)): 13.2 µM | GI50 (SW-620): 1.23 µM | LC50 (SW-620): 14.1 µM | TGI (SW-620; read-out: pTGI (converted)): 3.98 µM | GI50 (SK-OV-3): 3.24 µM | LC50 (SK-OV-3): > 50.1 µM | TGI (SK-OV-3; read-out: pTGI (converted)): 18.2 µM | GI50 (NCI-H322M): 6.76 µM | LC50 (NCI-H322M): > 50.1 µM | TGI (NCI-H322M; read-out: pTGI (converted)): 18.6 µM | LC50 (SF-295): 3.89 µM | GI50 (SF-295; read-out: GI50): 0.19 µM | GI50 (SF-295; read-out: pGI50 (converted)): 0.186 µM | TGI (SF-295; read-out: pTGI (converted)): 0.871 µM | GI50 (SN12C): 5.89 µM | LC50 (SN12C): 28.8 µM | TGI (SN12C; read-out: pTGI (converted)): 13.2 µM | GI50 (RPMI-8226): 0.178 µM | LC50 (RPMI-8226): > 50.1 µM | TGI (RPMI-8226; read-out: pTGI (converted)): 1.55 µM | GI50 (UACC-62): 1.07 µM | LC50 (50% lethal concentration) (UACC-62): 13.8 µM | TGI (UACC-62; read-out: pTGI (converted)): 3.8 µM | GI50 (K562): 1.2 µM | LC50 (K562): 22.9 µM | TGI (K562; read-out: pTGI (converted)): 4.07 µM | GI50 (HCT-15): 1.29 µM | LC50 (HCT-15): 17.8 µM | TGI (HCT-15; read-out: pTGI (converted)): 6.03 µM | GI50 (PC-3): 0.741 µM | CC50 (PC-3; read-out: pLC50 (the source's name) (converted)): 37.2 µM | TGI (PC-3; read-out: pTGI (converted)): 10 µM | GI50 (SK-MEL-2): 5.37 µM | LC50 (SK-MEL-2): 27.5 µM | TGI (SK-MEL-2; read-out: pTGI (converted)): 12 µM | GI50 (Malme-3M): 5.13 µM | LC50 (Malme-3M): 36.3 µM | TGI (Malme-3M; read-out: pTGI (converted)): 13.5 µM | GI50 (ACHN): 2.75 µM | LC50 (ACHN): 21.4 µM | TGI (ACHN; read-out: pTGI (converted)): 9.33 µM | GI50 (SNB-75): 3.63 µM | LC50 (SNB-75): 30.2 µM | TGI (SNB-75; read-out: pTGI (converted)): 11.7 µM | GI50 (OVCAR-4): 5.75 µM | LC50 (OVCAR-4): 28.8 µM | TGI (OVCAR-4; read-out: pTGI (converted)): 12.9 µM | GI50 (HT-29): 0.398 µM | LC50 (concentration killing 50% of cells) (HT-29): 13.2 µM | TGI (HT-29; read-out: pTGI (converted)): 2.63 µM | GI50 (KM12): 1.35 µM | LC50 (KM12): 18.6 µM | TGI (KM12; read-out: pTGI (converted)): 6.03 µM | GI50 (MDA-MB-435): 4.27 µM | LC50 (MDA-MB-435): 28.8 µM | TGI (MDA-MB-435; read-out: pTGI (converted)): 11.7 µM | GI50 (NCI-H23): 5.62 µM | LC50 (NCI-H23): 26.9 µM | TGI (NCI-H23; read-out: pTGI (converted)): 12.3 µM
